Measurements reported in ChEMBL document CHEMBL5634086, “Small molecule inhibitors of NLRP3 inflammasome and GSK-3β in the management of traumatic brain injury: A review” (Eur J Med Chem, 2023).
Each block holds one compound with its values, some of them ahead of it.

What was measured:
[1] = biological target: T1, Glycogen synthase kinase-3 beta (Homo sapiens, UniProt P49841); experiment: Inhibition of GST-tagged GSK3beta (unknown origin)
[2] = biological target: T1, Glycogen synthase kinase-3 beta; experiment: Inhibition of GSK3beta (unknown origin) expressed in Sf9 cells incubated for 30 mins in presence of [gamma32P]ATP by scintillation counting method
[3] = biological target: NACHT, LRR and PYD domains-containing protein 3 (Homo sapiens, UniProt Q96P20); experiment: Inhibition of NLRP3 inflammasome in LPS-induced […] cells assessed as reduction in IL-1beta release preincubated for 1 hr followed by ATP addition and measured after 30 mins by ELISA; assay type: cell-based
[4] = Inhibition of LPS/ATP induced IL-1beta release in human THP-1 cells at 10 uM pretreated with LPS for 3 hrs followed by compound addition for 1 hr prior to ATP addition for another 1 hr by ELISA; assay type: functional; parameters: scale not given: the % may be the effect or the level left; conditions: time 2 hrs

T1 sequence (P49841 whole entry): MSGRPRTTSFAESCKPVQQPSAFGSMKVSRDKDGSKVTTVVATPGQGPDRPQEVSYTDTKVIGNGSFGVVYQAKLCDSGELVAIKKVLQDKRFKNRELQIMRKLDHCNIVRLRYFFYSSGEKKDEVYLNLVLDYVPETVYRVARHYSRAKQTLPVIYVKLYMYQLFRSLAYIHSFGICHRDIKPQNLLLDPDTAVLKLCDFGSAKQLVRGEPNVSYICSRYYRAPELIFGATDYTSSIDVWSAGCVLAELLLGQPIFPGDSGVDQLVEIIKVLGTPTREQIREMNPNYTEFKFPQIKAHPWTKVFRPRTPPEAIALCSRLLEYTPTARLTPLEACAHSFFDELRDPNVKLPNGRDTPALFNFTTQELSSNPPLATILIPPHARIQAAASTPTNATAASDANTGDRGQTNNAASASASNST
Chain of NACHT, LRR and PYD domains-containing protein 3 (Q96P20 whole entry, the tested form may be a part): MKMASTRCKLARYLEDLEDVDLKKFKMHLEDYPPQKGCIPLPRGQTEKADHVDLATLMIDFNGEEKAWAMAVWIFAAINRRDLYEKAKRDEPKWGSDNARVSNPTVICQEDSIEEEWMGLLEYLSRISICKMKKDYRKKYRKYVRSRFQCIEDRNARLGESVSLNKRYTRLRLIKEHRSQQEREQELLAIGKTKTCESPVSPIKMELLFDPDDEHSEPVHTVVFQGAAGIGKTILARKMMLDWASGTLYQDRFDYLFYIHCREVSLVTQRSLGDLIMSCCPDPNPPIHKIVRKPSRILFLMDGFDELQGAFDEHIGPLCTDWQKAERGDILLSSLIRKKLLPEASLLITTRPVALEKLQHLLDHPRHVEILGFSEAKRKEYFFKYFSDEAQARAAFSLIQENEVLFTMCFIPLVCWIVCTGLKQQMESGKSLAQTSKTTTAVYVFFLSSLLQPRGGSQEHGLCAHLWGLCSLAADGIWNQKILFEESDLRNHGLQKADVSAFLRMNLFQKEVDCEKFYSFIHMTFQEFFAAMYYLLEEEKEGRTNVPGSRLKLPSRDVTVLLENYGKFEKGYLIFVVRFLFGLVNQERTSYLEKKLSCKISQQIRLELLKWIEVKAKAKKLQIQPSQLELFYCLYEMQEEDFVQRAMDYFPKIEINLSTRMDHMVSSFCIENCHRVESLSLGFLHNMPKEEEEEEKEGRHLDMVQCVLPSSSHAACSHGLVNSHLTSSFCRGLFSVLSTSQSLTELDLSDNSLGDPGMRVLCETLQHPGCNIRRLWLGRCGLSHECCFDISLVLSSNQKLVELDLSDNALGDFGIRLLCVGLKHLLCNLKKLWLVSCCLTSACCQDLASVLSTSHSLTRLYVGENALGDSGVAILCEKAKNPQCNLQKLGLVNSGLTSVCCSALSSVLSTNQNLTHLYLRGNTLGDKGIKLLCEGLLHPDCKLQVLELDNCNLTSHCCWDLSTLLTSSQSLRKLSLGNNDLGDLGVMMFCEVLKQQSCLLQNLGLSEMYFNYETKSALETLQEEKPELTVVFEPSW

IC50 [1]: 4 nM | IC50 [2]: 4 nM
SMILES: O=C1Cc2c([nH]c3ccc([N+](=O)[O-])cc23)-c2ncccc2N1

IC50 [3]: 5000 nM
SMILES: O=c1[nH]c(-c2ccc([N+](=O)[O-])cc2)nc2ccccc12

SMILES: c1cc2[nH]c(-c3cscn3)nc2cn1
Activity [4]: 30%
